Data reported in patent US12714698B2, “Compositions and methods for treating or preventing dermal disorders” (Drexel University, priority 2015, dated 2026).

Columns and labels:
[1] = tested on: human cardiac fibroblasts; test: Nanostring analysis of mRNA levels; type: cell-based; details: rapamycin
Method: (§1) Cell culture experiments utilizing NRTIs were of the following design. Cultures of either human lung or cardiac fibroblasts were cultivated according to standard culture protocols for these cells (Cristofalo, et al., Journal of Tissue Culture Methods 1980, 6:117-121). Parallel sets of cultures were maintained in normal growth media or in normal growth media with the addition of 1 nM rapamycin. Cultures were maintained with 1 nM rapamycin (Enzo Biologicals) for two weeks before exposure to NRTIs. Cell cultures were exposed to NRTIs at indicated concentrations in individual experiments (generally 10-20 μg/ml) for 7 days, with a change of media and fresh NRTIs at day 4. Mitochondrial measurements, bioanalyzer measurements, immunoblotting for protein expression and phosphorylation status, and assays for senescence were performed at the end of this 7-day period.
Differences in mitochondria-related gene expression was examined using a nanostring approach which allows multiplex evaluation of mRNA species in the absence of amplification and provides a direct count of mRNA molecules. The mRNA levels paralleled the changes observed in protein levels as mRNA levels for all subunits increased in cells exposed to NRTIs while rapamycin decreased mRNA levels for all subunits (FIGS. 2D-2H).

[2] = tested on: human cardiac fibroblasts; test: Mitochondrial membrane potential, mass, superoxide and total ROS by flow cytometry; type: cell-based; details: cultures grown with 1 nM rapamycin, NRTIs 7 days
Method: as §1
Cell culture reagents were from Cellgro, unless indicated. WI-38 fetal-lung primary human fibroblasts or human cardiac fibroblasts were grown in MEM supplemented with 10% fetal bovine serum, 1% L-glutamine, MEM vitamins, and MEM non-essential amino acids. Cells were maintained in a 37° C. in 5% CO2 incubator. For treatment studies, cells were treated with 1 nM rapamycin (Enzo Biologicals) for two weeks before treatment with NRTIs. Cells were maintained by trypsinization and reseeding at a cell density of 1×10^4/cm^2 every 7 to 10 days. Emtricitabine (FTC) and tenofovir disoproxil fumarate (TDF) were kindly provided by the NIH AIDS Research & Reference Reagent program. During the 7-day exposure to the NRTIs, the pharmacologic inhibitors PD98059 (10 μM, Santa Cruz Biotechnologies), BI-D1870, GW5074, and SB203580 (10 μM, Enzo Biologicals) were added to the culture medium either during the final 48 hours or for the final 2 hours depending upon the experiment. During the 7-day exposure to NRTIs, Trolox (500 μM) and N-acetylcysteine (100 μM, Acros Organics) were added every other day. Mito-Q (20 nM) and TPP (20 nM) were kindly provided by Dr. Brett Kaufmann at the University of Pennsylvania School of Veterinary Medicine. Vector and mt-catalase adenoviruses (MOI's 25, 50, and 75) were purchased from Gene Transfer Vector Core from the University of Iowa.
Mitochondrial membrane potential was detected by incubating cells with 25 nM TMRE (Molecular Probes). Mitochondrial mass was evaluated by incubating the cells with 100 nM Mitotracker Green FM (Molecular Probes). Mitochondrial superoxide anion levels were detected by incubating the cells with 5 μM MitoSox Red (Molecular Probes). Total cellular levels of ROS were detected by incubating the cells with 10 μM 2′,7′-dichlorofluoroscein diacetate (DCF-DA; Sigma-Aldrich) in 1% fetal bovine serumsupplemented MEM and washing twice with Krebs Ringer phosphate glucose buffer (145 mM NaCl, 5.7 mM NaH2PO4, 4.86 mM KCL, 0.54 mM CaCl2), 1.22 mM MgSO4, and 5.5 mM glucose) following the incubation period. For the aforementioned assessments, incubation was performed at 37° C. in 5% CO2 for 30 minutes and cells were harvested in 2.5% trypsin-EDTA with serum-containing medium. Cells were immediately analyzed with a Guava EasyCyte Mini employing the Guava Express Plus program (Guava Technologies).

[3] = tested on: seborrheic keratosis lesion; test: Topical treatment of a seborrheic keratosis lesion; type: in vivo, human; details: 21 days, 10 μM rapamycin in an emulsified gel preparation
Method: FIG. 20 is a photograph of a seborrheic keratosis lesion before and after 21 days of treatment with 10 μM rapamycin in an emulsified gel preparation as in FIG. 19.

[4] = tested on: human cardiac fibroblasts; test: Senescence-associated beta-galactosidase detection; type: cell-based; details: rapamycin treated cultures (1 nM)
Method: as §1
Assessment of SA-β-gal activity was performed by plating cells following respective treatments at low density (0.5×10^4/cm^2) to prevent false positive staining known to occur in high density cultures. […] Following incubation, cells were washed three times with PBS and at least 500 cells were counted for each sample in triplicates. Positive cells (blue cells) were expressed as a percentage of total cells.

CO[C@H]1C[C@@H]2CC[C@@H](C)[C@@](O)(O2)C(=O)C(=O)N2CCCC[C@H]2C(=O)O[C@H]([C@H](C)C[C@@H]2CC[C@@H](O)[C@H](OC)C2)CC(=O)[C@H](C)/C=C(\C)[C@@H](O)[C@@H](OC)C(=O)[C@H](C)C[C@H](C)/C=C/C=C/C=C/1C [rapamycin]
mRNA levels for ETC subunits [1]: decreased
mitochondrial ROS following exposure to NRTIs [2]: did not exhibit the same level of increase
mitochondrial membrane potential following exposure to NRTIs [2]: did not exhibit the same level of increase
total cellular ROS following exposure to NRTIs [2]: did not exhibit the same level of increase
severity of seborrheic keratosis lesion, visual inspection [3]: significant reduction in severity
SA-β-gal following exposure to NRTIs [4]: no increase
